In patent publication US10369145B2, “Coumarin derivatives and methods of use in treating hyperproliferative diseases” (DISCOVERYBIOMED, INC., priority 2013, dated 2019):

Assays:
[1] = tested on: WT cells (cloned non-cystic kidney tissue cells); assay: Concentration-response in primary cultures cloned from non-cystic kidney tissue; type: cell-based; settings: 72 hour treatment
Description: (§1) The concentration-response effects of Compound DBM 228, Compound DBM 308, Compound DBM 101, and Compound DBM 328 were determined in primary cultures derived as ‘clones’ from cystic versus non-cystic kidney tissue. CRC graphs, IC50 values, and the percent maximum inhibition versus lowest doses without effect were calculated with GraphPad Prism software. […] There was also a marked separation in effect between hyperproliferative PKD cells (FIG. 5A and Table 3) and WT cells (FIG. 5B and Table 4).

[2] = tested on: hyperproliferative PKD cells (cloned polycystic kidney tissue cells); assay: Concentration-response in primary cultures cloned from cystic kidney tissue; type: cell-based; settings: 72 hour treatment; for IC50 / Max inhibition: hyperproliferative PKD cells
Description: as §1

[3] = tested on: human cystic ADPKD and non-cystic renal epithelial cells; assay: Proliferating versus confluent cystic ADPKD and normal renal cells; type: cell-based
Description: The compounds described herein are effective for inhibiting cellular proliferation in hyperproliferative cell types. To study the effects of these compounds, an assay was developed to differentiate the effects of the compounds on proliferating versus confluent cells. The assay design generates a proliferating density 24 hours after seeding and provides a 3-day active cell growth/doubling window in which to gauge the anti-proliferative effect of the compounds described herein. […] In this 3-day growth window, cell number increases with daily doublings across the 72-hour period (see FIG. 1).
In each assay design, compounds were added at the 24-hour timepoint after cell seeding. The effect of the compounds, relative to vehicle control and to VelCade (a proteasome inhibitor approved in the U.S. for treating relapsed multiple myeloma and mantle cell lymphoma) as a positive control, was assessed across the 3-day growth window for proliferating cells and on an already near confluent culture of cells for the same time period. […]
Cell number at the end of the assay was determined using the CELLTITER-GLO Luminescent Cell Viability Assay (Promega; Madison, Wis.). The CELLTITER-GLO Luminescent Cell Viability Assay is a homogeneous method of determining the number of viable cells in culture based on quantitation of the ATP present, an indicator of metabolically active cells. […]

[4] = tested on: myeloma cells; type: cell-based; settings: for GI50 / TGI / efficacy and potency (FIG. 4): myeloma cells; for GI50 / TGI: 48 h drug exposure
Description: For a typical screening experiment to identify the compounds, cells were seeded into 96- or 384-well microtiter plates at plating densities pre-determined for each cell line to ensure drug exposure occurs during the proliferative phase well before confluency is reached. After seeding, cells were incubated for 24 h prior to addition of experimental drugs. After 24 h, a test plate was assayed (CellTiterGlo—measurement of cytosolic ATP) to determine a baseline measurement of the cell population for each cell line at the time of drug addition. Experimental drugs were then added and cells were cultured for a 48 h drug exposure window. […] Values were calculated for each of these three parameters if the level of activity was reached; however, if the effect was not reached or was exceeded, the value for that parameter was expressed as greater or less than the maximum or minimum concentration tested.

[5] = tested on: NCI/ADR-RES; settings: for potency in multi-drug resistant line, in words (FIG. 9): NCI-ADR/RES versus drug-responsive cells
Text: TGI means the drug concentration resulting in total growth inhibition or “cytostasis.” LC50 is the concentration of drug resulting in a 50% reduction in the measured cytosolic ATP at the end of the drug treatment as compared to that at the beginning, indicating a net loss of cells following treatment (cytotoxicity).
A major limitation with the anti-mitotic drugs in particular and in conventional chemotherapeutics in general, is their susceptibility to cellular mechanisms of adaptive/intrinsic multi-drug resistance (i.e., MDR efflux pumps such as p-glycoprotein, MRP1).

[6] = tested on: NCI-60 cell panel; assay: NCI-60 cell panel, whole panel; type: cell-based, human; settings: average in the NCI-60 cell panel
[7] = tested on: tubulin; assay: Biochemical tubulin polymerization; settings: FIG. 11C
Description: Following 24 hours of treatment with Compound DBM 228, Compound DBM 318, and Compound DBM 328, caspase 3/7 activation in U251MG cells was determined. The detection of caspase 3/7 activation in U251MG cells indicates activation of apoptosis. Tubulin polymerization was determined for Compounds DBM 227, DBM 228, DBM 308, DBM 318, DBM 701, DBM 707, DBM 715, paclitaxel, vincristine, and negative control Compound DBM 328. […] Paclitaxel served as polymerization enhancer control and vincristine served as polymerization inhibitor control.

[8] = tested on: primary human glioblastoma multiforme (GBM) cells; assay: Neurosphere growth of primary human GBM cells; type: cell-based; settings: GBM cells grown in vitro on 3D neurospheres
Text: Data are expressed as mean±SEM and represent at least two independent experiments with sample replicates.

[9] = tested on: primary human idiopathic pulmonary fibrosis (IPF) myofibroblasts; assay: Growth of primary human IPF myofibroblasts in vitro; type: cell-based; settings: CRC

SMILES	IC50 [1] [nM]	GI50 [4] [nM]	Max inhibition [1] [%]	IC50 [2] [nM]	Max inhibition [2] [%]	CC50 [4] [nM]	TGI [4]	effect on biochemical tubulin polymerization, in words [7]	efficacy and potency (FIG. 4) [4]	other results
COc1ccccc1Nc1nc(-c2cc3ccc(N)c([N+](=O)[O-])c3oc2=O)cs1 [Compound DBM 715]								modestly inhibited	significant efficacy and potency	
Cn1nnc2c(C(N)=O)ncn2c1=O [TMZ, temozolomide, reference compound]										concentration giving equivalent cytotoxic effect [8]: 500 µM
CC(=O)O[C@H]1C(=O)[C@@]2(C)[C@H]([C@H](OC(=O)c3ccccc3)[C@]3(O)C[C@H](OC(=O)[C@H](O)[C@@H](NC(=O)c4ccccc4)c4ccccc4)C(C)=C1C3(C)C)[C@]1(OC(C)=O)CO[C@@H]1C[C@@H]2O [paclitaxel, reference compound]										potency in multi-drug resistant line, in words (FIG. 9) [5]: significantly right-shifted
CC[C@]1(O)C[C@H]2CN(CCc3c([nH]c4ccccc34)[C@@](C(=O)OC)(c3cc4c(cc3OC)N(C=O)[C@H]3[C@@](O)(C(=O)OC)[C@H](OC(C)=O)[C@]5(CC)C=CCN6CC[C@]43[C@@H]65)C2)C1 [vincristine, reference compound]										potency in multi-drug resistant line, in words (FIG. 9) [5]: significantly right-shifted

Second part, led by results:

IC50 [1] [nM]	GI50 [4] [nM]	SMILES	Max inhibition [1] [%]	IC50 [2] [nM]	Max inhibition [2] [%]	CC50 [4] [nM]	TGI [4]	effect on biochemical tubulin polymerization, in words [7]	efficacy and potency (FIG. 4) [4]	other results
> 100000		COc1ccccc1Nc1nc(-c2cc3cccc(OC)c3oc2=O)cs1 [Compound DBM 101]	48	7200	77					effect, in words ([3]; confluent diseased cells and proliferating and confluent normal cells): only partially affected and at mid-micromolar doses; cytostatic effects, in words ([3]; proliferating cystic ADPKD cells): selective for hyperproliferative ‘diseased’ cells at potent nanomolar doses
	137	COc1ccccc1Nc1nc(-c2cc3cccc([N+](=O)[O-])c3oc2=O)cs1 [Compound DBM 227]				> 4000	404 nM	modestly inhibited		IC50 ([5]; read-out: potency in the NCI-ADR/RES cell line, multi-drug resistant NCI-ADR/RES): 100 nM; GI50 [6]: 250 nM
> 100000	166	COc1ccccc1Nc1nc(-c2cc3cccc(Cl)c3oc2=O)cs1 [Compound DBM 308]	52	540	84	> 4000	247 nM	modestly inhibited	significant efficacy and potency	cytostatic effect, in words [2]: potent and effective analog; concentration giving equivalent cytotoxic effect [8]: 3 µM; cytostatic effect, in words [8]: cytostatic effect at nanomolar doses; effect on neurosphere growth, in words [8]: dose-dependent growth arrest to cytotoxic effect
	133	COc1ccccc1Nc1nc(-c2cc3cccc(Br)c3oc2=O)cs1 [Compound DBM 318]				226	164 nM	modestly inhibited	significant efficacy and potency	
> 100000	2110	COc1ccccc1Nc1nc(-c2cc3cccc(C(=O)O)c3oc2=O)cs1 [Compound DBM 328]	28	78000	48	> 4000	>4,000 nM	also inhibited microtubule polymerization		anti-proliferative effect, in words [9]: without effect throughout the CRC
	131	COc1ccccc1Nc1nc(-c2cc3cccc(C)c3oc2=O)cs1 [Compound DBM 707]				544	183 nM	modestly inhibited	significant efficacy and potency	
